# In patent US7045343B2, “Sterilization indicator test packs” (3M Innovative Properties Company, priority 1998, dated 2006):
# Experiments:
# [1] = tested on: enzyme associated with Bacillus stearothermophilus spores; test: Rapid enzyme fluorescence readout of indicators after hydrogen peroxide plasma sterilization; type: biochemical; settings: for FLUORESCENCE - PERCENT POSITIVE 1 HR / FLUORESCENCE - PERCENT POSITIVE 2 HR / FLUORESCENCE - PERCENT POSITIVE 3 HR / FLUORESCENCE - PERCENT POSITIVE 4 HR / FLUORESCENCE - PERCENT POSITIVE 5 HR: 1–22 min diffusion;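 on FLUORESCENCE - PERCENT POSITIVE 5 HR: percent of growth-positive indicators that were also fluorescence-positive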
# How it was run: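 Indicators with a TYVEK closure held spores coated with various chemicals and were exposed to hydrogen peroxide plasma at 45–55 °C: 6–7 mg/ml chamber peroxide, diffusing 1–22 min at 6–10 Torr. Enzyme fluorescence was read hourly for 5 h at 60 °C. Growth was scored visually as a purple-to-yellow change after 168 h.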
# [2] = tested on: Bacillus stearothermophilus spores; test: Spore outgrowth (color change) of indicators after hydrogen peroxide plasma sterilization; type: cell-based; settings: 1–22 min diffusion
# Method: Sterilization indicators for Examples 6–9 were prepared as described above with the exception that closure member 22 of the sterilization indicator was constructed of TYVEK™ high-density polyethylene fiber material, commercially available from E.I. du Pont de Nemours and Co., Wilmington, Del.
# (§1) Sterilization indicators were made as described above with spores that had been coated with each of the chemicals and concentrations listed in Table 6. The indicators were placed in instrument trays and exposed to a hydrogen peroxide plasma sterilization procedure at 45–55° C. in a STERRAD™ 100SI GMP Sterilizer, obtained from Advanced Sterilization Products Co., Irvine, Calif. During the sterilization procedure a vacuum was drawn in the sterilization chamber for 5–6 minutes until the pressure was reduced to 300 mTorr. A 1.8 ml aliquot of an aqueous solution of 58–60% hydrogen peroxide was then injected into the sterilization chamber over a period of about 6 minutes, yielding an empty chamber concentration of […] hydrogen peroxide, and hydrogen peroxide vapor was allowed to diffuse throughout the chamber for 1–22 minutes at 6–10 Torr. A vacuum was then drawn, reducing the pressure to 500 mTorr and removing all detectable hydrogen peroxide vapor from the chamber.
# After exposure to the sterilization procedure, the indicators were removed from the sterilizer and the inner containers containing the enzyme substrate and nutrient medium were crushed. The indicators were then incubated at 60° C. and examined for fluorescence every hour for 5 hours using a 3M™ ATTEST™ Model 190 Rapid Autoreader, commercially available from 3M Company, St. Paul, Minn. Additionally, spore growth, as indicated by a color change from purple to yellow, was determined visually after 168 hours of incubation.
# The number of growth positive indicators detected after 168 hours of incubation is recorded in Table 6.
# as §1, with “7.” for “6.”
# as §1, with “8.” for “6.”, “chamber. […]” for “chamber.”
# [3] = tested on: enzyme associated with Bacillus stearothermophilus spores; test: Rapid enzyme fluorescence readout of dual rapid readout indicators after prevacuum steam sterilization; type: biochemical; settings: 4-pulse prevacuum steam 121° C.
# How it was run: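 This is a rapid enzyme test in which spore-associated enzyme activity is detected by fluorescence. Spores coated with chemicals were dried on 5×25 mm paper strips for 16 hours at 37° C. They were loaded into indicators that carried 4-methylumbelliferyl-alpha-D-glucoside substrate, with untreated spores serving as controls. After 4-pulse prevacuum steam exposure at 121° C, with vacuum at 0.075–0.085 bar, the substrate ampoules were crushed and the indicators were incubated at 60° C and read with an autoreader.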
# [4] = tested on: Bacillus stearothermophilus spores; test: Spore outgrowth (color change) of indicators after prevacuum steam sterilization; type: cell-based; settings: 4-pulse prevacuum steam 121° C.
# How it was run: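 Self-contained indicators held coated spore strips, a polypropylene microfiber barrier and a crushable inner container. That container held peptone, L-alanine, 4-methylumbelliferyl-alpha-D-glucoside and bromocresol purple at pH 7.6. Indicators sat in metal trays in a Getinge sterilizer running pulses of 0.075–0.085 bar vacuum and steam to 1.00 bar at 121° C. Incubation at 60° C followed, and yellow color at 168 hours scored spore outgrowth.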
# [5] = Example 5, 50 mg/ml coating, 7–13 min
# [6] = Example 5, 100 mg/ml coating, 7–13 min
# [7] = Example 4, 50 mg/ml coating, 7–18 min
# [8] = Example 4, 100 mg/ml coating, 7–18 min
substance,measurement,setting,value
polyoxyethylene (20) sorbitan monostearate [POE(20) Sorbitan Monostearate],accuracy of sterilization indicators compared to indicators made with untreated spores,[1]; 2–3 hours after exposure,improved
same,FLUORESCENCE - PERCENT POSITIVE 1 HR,"[1]; Example 7, 50 mg/ml coating",100%
same,FLUORESCENCE - PERCENT POSITIVE 2 HR,"[1]; Example 7, 50 mg/ml coating",100%
same,FLUORESCENCE - PERCENT POSITIVE 3 HR,"[1]; Example 7, 50 mg/ml coating",100%
same,FLUORESCENCE - PERCENT POSITIVE 4 HR,"[1]; Example 7, 50 mg/ml coating",100%
same,FLUORESCENCE - PERCENT POSITIVE 5 HR,"[1]; Example 7, 50 mg/ml coating",100%
same,FLUORESCENCE - PERCENT POSITIVE 1 HR,"[1]; Example 7, 100 mg/ml coating",50%
same,FLUORESCENCE - PERCENT POSITIVE 2 HR,"[1]; Example 7, 100 mg/ml coating",50%
same,FLUORESCENCE - PERCENT POSITIVE 3 HR,"[1]; Example 7, 100 mg/ml coating",62.5%
same,FLUORESCENCE - PERCENT POSITIVE 4 HR,"[1]; Example 7, 100 mg/ml coating",75%
same,FLUORESCENCE - PERCENT POSITIVE 5 HR,"[1]; Example 7, 100 mg/ml coating",75%
same,NO. GROWTH POSITIVE 168 HR,"[2]; Example 7, 50 mg/ml coating",6
same,NO. GROWTH POSITIVE 168 HR,"[2]; Example 7, 100 mg/ml coating",8
same,FLUORESCENCE - PERCENT POSITIVE 1 HR,[3]; [5],0%
same,FLUORESCENCE - PERCENT POSITIVE 2 HR,[3]; [5],0%
same,FLUORESCENCE - PERCENT POSITIVE 3 HR,[3]; [5],0%
same,FLUORESCENCE - PERCENT POSITIVE 4 HR,[3]; [5],0%
same,FLUORESCENCE - PERCENT POSITIVE 1 HR,[3]; [6],0%
same,FLUORESCENCE - PERCENT POSITIVE 2 HR,[3]; [6],0%
same,FLUORESCENCE - PERCENT POSITIVE 3 HR,[3]; [6],0%
same,FLUORESCENCE - PERCENT POSITIVE 4 HR,[3]; [6],0%
same,NO. GROWTH POSITIVE 168 HR,[4]; [5],5
same,NO. GROWTH POSITIVE 168 HR,[4]; [6],2
Decaglyceryl Pentaoleate,accuracy of sterilization indicators compared to indicators made with untreated spores,[1]; 1–3 hours after exposure,improved
same,FLUORESCENCE - PERCENT POSITIVE 1 HR,"[1]; Example 6, 50 mg/ml coating",82.4%
same,FLUORESCENCE - PERCENT POSITIVE 2 HR,"[1]; Example 6, 50 mg/ml coating",94.1%
same,FLUORESCENCE - PERCENT POSITIVE 3 HR,"[1]; Example 6, 50 mg/ml coating",100%
same,FLUORESCENCE - PERCENT POSITIVE 4 HR,"[1]; Example 6, 50 mg/ml coating",100%
same,FLUORESCENCE - PERCENT POSITIVE 5 HR,"[1]; Example 6, 50 mg/ml coating",100%
same,NO. GROWTH POSITIVE 168 HR,"[2]; Example 6, 50 mg/ml coating",17
same,FLUORESCENCE - PERCENT POSITIVE 1 HR,[3]; [7],0%
same,FLUORESCENCE - PERCENT POSITIVE 2 HR,[3]; [7],0%
same,FLUORESCENCE - PERCENT POSITIVE 3 HR,[3]; [7],18.8%
same,FLUORESCENCE - PERCENT POSITIVE 4 HR,[3]; [7],31.3%
same,FLUORESCENCE - PERCENT POSITIVE 1 HR,[3]; [8],12.5%
same,FLUORESCENCE - PERCENT POSITIVE 2 HR,[3]; [8],25.0%
same,FLUORESCENCE - PERCENT POSITIVE 3 HR,[3]; [8],37.5%
same,FLUORESCENCE - PERCENT POSITIVE 4 HR,[3]; [8],45.8%
same,NO. GROWTH POSITIVE 168 HR,[4]; [7],16
same,NO. GROWTH POSITIVE 168 HR,[4]; [8],24
Tetraglyceryl Monooleate,accuracy of sterilization indicators compared to indicators made with untreated spores,[1]; 1–3 hours after exposure,improved
same,FLUORESCENCE - PERCENT POSITIVE 1 HR,"[1]; Example 6, 50 mg/ml coating",76.6%
same,FLUORESCENCE - PERCENT POSITIVE 2 HR,"[1]; Example 6, 50 mg/ml coating",90.9%
same,FLUORESCENCE - PERCENT POSITIVE 3 HR,"[1]; Example 6, 50 mg/ml coating",100%
same,FLUORESCENCE - PERCENT POSITIVE 4 HR,"[1]; Example 6, 50 mg/ml coating",100%
same,FLUORESCENCE - PERCENT POSITIVE 5 HR,"[1]; Example 6, 50 mg/ml coating",100%
same,NO. GROWTH POSITIVE 168 HR,"[2]; Example 6, 50 mg/ml coating",11
same,accuracy of sterilization indicators compared to indicators made with untreated spores,[3],improved
same,FLUORESCENCE - PERCENT POSITIVE 1 HR,[3]; [7],0.0%
same,FLUORESCENCE - PERCENT POSITIVE 2 HR,[3]; [7],52.9%
same,FLUORESCENCE - PERCENT POSITIVE 3 HR,[3]; [7],52.9%
same,FLUORESCENCE - PERCENT POSITIVE 4 HR,[3]; [7],58.8%
same,FLUORESCENCE - PERCENT POSITIVE 1 HR,[3]; [8],57.1%
same,FLUORESCENCE - PERCENT POSITIVE 2 HR,[3]; [8],100.0%
same,FLUORESCENCE - PERCENT POSITIVE 3 HR,[3]; [8],100.0%
same,FLUORESCENCE - PERCENT POSITIVE 4 HR,[3]; [8],100.0%
same,NO. GROWTH POSITIVE 168 HR,[4]; [7],17
same,NO. GROWTH POSITIVE 168 HR,[4]; [8],35
Decaglyceryl Trioleate,FLUORESCENCE - PERCENT POSITIVE 1 HR,"[1]; Example 6, 50 mg/ml coating",85.0%
same,FLUORESCENCE - PERCENT POSITIVE 2 HR,"[1]; Example 6, 50 mg/ml coating",97.5%
same,FLUORESCENCE - PERCENT POSITIVE 3 HR,"[1]; Example 6, 50 mg/ml coating",100%
same,FLUORESCENCE - PERCENT POSITIVE 4 HR,"[1]; Example 6, 50 mg/ml coating",100%
same,FLUORESCENCE - PERCENT POSITIVE 5 HR,"[1]; Example 6, 50 mg/ml coating",100%
same,NO. GROWTH POSITIVE 168 HR,"[2]; Example 6, 50 mg/ml coating",40
same,FLUORESCENCE - PERCENT POSITIVE 1 HR,[3]; [7],0.0%
same,FLUORESCENCE - PERCENT POSITIVE 2 HR,[3]; [7],21.1%
same,FLUORESCENCE - PERCENT POSITIVE 3 HR,[3]; [7],47.4%
same,FLUORESCENCE - PERCENT POSITIVE 4 HR,[3]; [7],68.4%
same,FLUORESCENCE - PERCENT POSITIVE 1 HR,[3]; [8],23.1%
same,FLUORESCENCE - PERCENT POSITIVE 2 HR,[3]; [8],50.0%
same,FLUORESCENCE - PERCENT POSITIVE 3 HR,[3]; [8],73.1%
same,FLUORESCENCE - PERCENT POSITIVE 4 HR,[3]; [8],92.3%
same,NO. GROWTH POSITIVE 168 HR,[4]; [7],19
same,NO. GROWTH POSITIVE 168 HR,[4]; [8],26
